For nine molecules, IC50 results are on record in patent US20250248973A1, “CANNABINOID RECEPTOR 1 ANTAGONISTS/INVERSE AGONISTS AND USES THEREOF” (Corbus Pharmaceuticals, Inc., priority 2022, published 2025).

Experiment [1] deals with Human CB1 Receptor-1b (hCB1b) (Homo sapiens (Human), UniProt P21554). Briefly: hCB1b Gai cyclic AMP (cAMP) TR-FRET assay, antagonism of EC80 CP55940 with forskolin. The experiment is classed as cell-based. Particulars: hCB1b cells, 30 min pre-incubation, read-out: CB1b IC50. The procedure:
(§1) Example 3. Biochemical Methods Human CB1 Receptor-1 (hCB1) and Human CB1 Receptor-1b (hCBib)
(§2) hCB1/hCB1 b Gai Cyclic AMP (cAMP) Assays: Cells were seeded in a 384-well plate at an appropriate density from frozen cells. The cAMP assays were performed according to the manufacturer's protocol using MULTISCREEN™ TR-FRET cAMP 1.0 No Wash Assay Kit. Cells (hCB1 or hCB1 b) were pre-incubated with customer compounds for 30 minutes at rt followed by addition of EC80 CP55940 concentration and Forskolin. Cells were then incubated for 20 minutes at 37C. The reaction was terminated by sequentially adding sequentially adding MULTISCREEN™ Eu-labeled cAMP and MULTISCREEN™ 650-labeled anti-cAMP antibody in lysis buffer. The plate was then incubated at rt for 30 minutes before reading fluorescent emissions at 620 nm and 665 with excitation at 314 nm on FlexStation III (Molecular Devices). The results are shown in Table 2 (“***” denotes an IC50<100 nM; “**” denotes an IC50 between 100 nM and 500 nM, and “*” denotes an IC50>500 nM).
In general terms: In TR-FRET formats the signal depends on donor and acceptor labels being close together.

Experiment [2] has as its target Human CB1 Receptor-1 (hCB1) (Homo sapiens (Human), UniProt P21554). As to the kind of experiment: hCB1 Gai cyclic AMP (cAMP) TR-FRET assay, antagonism of EC80 CP55940 with forskolin. The experiment is classed as cell-based. Particulars: hCB1 cells, 30 min pre-incubation. On the procedure: as §1, §2

Human CB1 Receptor-1b (hCB1b), sequence (P21554 other isoform, or with tags, fused parts or gaps): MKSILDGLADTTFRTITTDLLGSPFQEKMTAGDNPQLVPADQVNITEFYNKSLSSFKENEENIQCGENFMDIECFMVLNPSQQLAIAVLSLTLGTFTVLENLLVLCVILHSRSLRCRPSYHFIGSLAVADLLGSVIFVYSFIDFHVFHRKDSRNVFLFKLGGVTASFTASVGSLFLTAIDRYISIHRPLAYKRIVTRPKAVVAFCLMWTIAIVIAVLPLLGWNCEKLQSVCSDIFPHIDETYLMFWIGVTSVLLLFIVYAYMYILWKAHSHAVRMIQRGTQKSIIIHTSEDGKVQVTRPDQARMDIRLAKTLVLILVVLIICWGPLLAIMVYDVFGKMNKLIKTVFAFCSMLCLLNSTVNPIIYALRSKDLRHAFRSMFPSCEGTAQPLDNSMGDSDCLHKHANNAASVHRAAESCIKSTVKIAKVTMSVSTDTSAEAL
Human CB1 Receptor-1 (hCB1), sequence (P21554 whole entry): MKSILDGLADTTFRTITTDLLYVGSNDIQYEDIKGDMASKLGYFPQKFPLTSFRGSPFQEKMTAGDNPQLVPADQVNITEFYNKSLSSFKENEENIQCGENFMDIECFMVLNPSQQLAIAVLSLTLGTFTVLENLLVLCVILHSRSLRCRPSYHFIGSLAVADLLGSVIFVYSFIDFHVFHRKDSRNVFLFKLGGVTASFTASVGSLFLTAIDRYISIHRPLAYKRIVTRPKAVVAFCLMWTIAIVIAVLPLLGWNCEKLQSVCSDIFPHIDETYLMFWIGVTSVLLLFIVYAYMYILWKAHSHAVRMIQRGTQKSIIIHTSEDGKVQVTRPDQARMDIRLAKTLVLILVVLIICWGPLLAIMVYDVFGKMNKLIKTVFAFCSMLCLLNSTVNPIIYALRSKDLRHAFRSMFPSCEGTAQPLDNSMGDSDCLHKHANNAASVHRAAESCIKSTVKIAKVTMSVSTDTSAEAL

`C[C@H](CN/C(=N\S(=O)(=O)c1ccc(C(F)(F)F)cc1)N1C[C@H](c2ccccc2)C(c2ccc(Cl)cc2)=N1)S(N)(=O)=O` [Compound 17, (S,E)-3-(4-chlorophenyl)-4-phenyl-N-((R)-2-sulfamoylpropyl)-N′-((4-(trifluoromethyl)phenyl)sulfonyl)-4,5-dihydro-1H-pyrazole-1-carboximidamide]: the IC50 (as a rule, the point on the concentration scale where inhibition reaches its midpoint) in experiment [1] is greater than 500 nM; in experiment [2], less than 100 nM.
The like results for `C[C@@H](CN/C(=N\S(=O)(=O)c1ccc(C(F)(F)F)cc1)N1C[C@H](c2ccccc2)C(c2ccc(Cl)cc2)=N1)S(N)(=O)=O` [Compound 18, (S,E)-3-(4-chlorophenyl)-4-phenyl-N-((S)-2-sulfamoylpropyl)-N′-((4-(trifluoromethyl)phenyl)sulfonyl)-4,5-dihydro-1H-pyrazole-1-carboximidamide] were, in that order, 100 to 500 nM and less than 100 nM.
As for `C#Cc1ccc(S(=O)(=O)N=C(NCCS(N)(=O)=O)N2C[C@H](c3ccccc3)C(c3ccc(Cl)cc3)=N2)cc1` [Compound 21, (S)-3-(4-chlorophenyl)-N′-((4-ethynylphenyl)sulfonyl)-4-phenyl-N-(2-sulfamoylethyl)-4,5-dihydro-1H-pyrazole-1-carboximidamide], the IC50 in experiment [1] and in experiment [2] was less than 100 nM throughout.
Regarding `C[C@H](CS(N)(=O)=O)N/C(=N\S(=O)(=O)c1ccc(C(F)(F)F)cc1)N1C[C@H](c2ccccc2)C(c2ccc(Cl)cc2)=N1` [Compound 23, (S,E)-3-(4-chlorophenyl)-4-phenyl-N-((R)-1-sulfamoylpropan-2-yl)-N′-((4-(trifluoromethyl)phenyl)sulfonyl)-4,5-dihydro-1H-pyrazole-1-carboximidamide], the IC50 in experiment [1] and in experiment [2] was 100 to 500 nM throughout.
`C[C@@H](CS(N)(=O)=O)N/C(=N\S(=O)(=O)c1ccc(C(F)(F)F)cc1)N1C[C@@H](c2ccccc2)C(c2ccc(Cl)cc2)=N1` [Compound 26, (R,E)-3-(4-chlorophenyl)-4-phenyl-N-((S)-1-sulfamoylpropan-2-yl)-N′-((4-(trifluoromethyl)phenyl)sulfonyl)-4,5-dihydro-1H-pyrazole-1-carboximidamide]: the figures for the IC50 in experiment [1] and in experiment [2] were 100 to 500 nM and less than 100 nM, respectively.
Consider `NS(=O)(=O)CCNC(=NS(=O)(=O)c1cccc(C(F)(F)F)c1)N1C[C@H](c2ccccc2)C(c2ccc(Cl)cc2)=N1` [Compound 27, (S)-3-(4-chlorophenyl)-4-phenyl-N-(2-sulfamoylethyl)-N′-((3-(trifluoromethyl)phenyl)sulfonyl)-4,5-dihydro-1H-pyrazole-1-carboximidamide], for which the IC50 in experiment [1] and in experiment [2] was less than 100 nM in each case.
On to `NS(=O)(=O)CCNC(=NS(=O)(=O)c1ccccc1Cl)N1C[C@H](c2ccccc2)C(c2ccc(Cl)cc2)=N1` [Compound 29, (S)-3-(4-chlorophenyl)-N′-((2-chlorophenyl)sulfonyl)-4-phenyl-N-(2-sulfamoylethyl)-4,5-dihydro-1H-pyrazole-1-carboximidamide], for which the IC50 in experiment [1] and in experiment [2] was less than 100 nM in each case.
As for `NS(=O)(=O)CCNC(=NS(=O)(=O)c1cccc(Cl)c1)N1C[C@H](c2ccccc2)C(c2ccc(Cl)cc2)=N1` [Compound 31, (S)-3-(4-chlorophenyl)-N′-((3-chlorophenyl)sulfonyl)-4-phenyl-N-(2-sulfamoylethyl)-4,5-dihydro-1H-pyrazole-1-carboximidamide], the IC50 in experiment [1] and in experiment [2] was less than 100 nM in each case.
As for `NS(=O)(=O)CCN/C(=N\S(=O)(=O)c1ccc(C(F)(F)F)cc1)N1C[C@H](c2ccccc2)C(c2ccc(F)cc2)=N1` [Compound 43, (S,E)-3-(4-fluorophenyl)-4-phenyl-N-(2-sulfamoylethyl)-N′-((4-(trifluoromethyl)phenyl)sulfonyl)-4,5-dihydro-1H-pyrazole-1-carboximidamide], the IC50 in experiment [1] and in experiment [2] was less than 100 nM each time.
